Reference: EP4810052A2, “HCRHR2 SELECTIVE POLYPEPTIDES” (Gubra A/S, priority 2023, dated 2026)
Starred links: 1 amine or outer side, 2 acyl side, 3 side chain; linkers in the order of their positions; H or OH if unused. Non-standard residues stand in square brackets, D forms with d. Residues, ends and D or L forms follow the SMILES beside them. Groups on a side chain read outwards from the residue. *: point of attachment. C20 diacid = O=C(O)CCCCCCCCCCCCCCCCCCC(=O)*; γGlu = O=C(O)[C@H](CCC(=O)[*:2])N[*:1]; NMeI = CC[C@H](C)[C@H](NC)C(=O)O; Nle = CCCC[C@H](N)C(=O)O; AEEA = NCCOCCOCC(=O)O; Aib = CC(C)(N)C(=O)O

How the values were obtained:
hCRHR2 = biological target: T1, hCRHR2 (Homo sapiens, UniProt Q13324); test: HTRF cAMP assay, determination of hCRHR2 potency (peptide libraries 5 conc., purified peptides 11 conc.); format: cell-based; details: for EC50: Table 4, library peptides having X^38 = Nle, read-out: hCRHR2 pEC50 (converted)
T1 sequence (Q13324 1-411): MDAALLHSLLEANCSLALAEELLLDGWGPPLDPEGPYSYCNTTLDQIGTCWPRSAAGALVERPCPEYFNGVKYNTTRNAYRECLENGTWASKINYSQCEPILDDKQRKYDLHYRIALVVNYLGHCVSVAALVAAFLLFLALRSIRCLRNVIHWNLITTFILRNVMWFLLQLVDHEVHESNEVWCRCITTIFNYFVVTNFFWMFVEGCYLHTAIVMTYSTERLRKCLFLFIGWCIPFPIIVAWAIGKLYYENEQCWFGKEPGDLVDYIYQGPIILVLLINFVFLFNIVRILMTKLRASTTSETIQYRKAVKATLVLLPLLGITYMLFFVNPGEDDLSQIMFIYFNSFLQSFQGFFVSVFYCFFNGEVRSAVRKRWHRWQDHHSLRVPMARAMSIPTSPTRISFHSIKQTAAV
Procedure, shortened: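 Frozen stocks of hCRHR2-expressing CHO-K1 cells, thawed just before testing, received peptide agonists in suspension; cAMP quantified by competitive HTRF immunoassay, with curves fitted by nonlinear regression (variable slope) for EC50.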

hCRHR1 = biological target: T2, hCRHR1 (Homo sapiens, UniProt P34998); test: HTRF cAMP assay, determination of hCRHR1 potency (peptide libraries 5 conc., purified peptides 11 conc.); format: cell-based; details: Table 4, library peptides having X^38 = Nle; read-out: hCRHR1 pEC50 (converted)
T2 sequence (P34998 24-415): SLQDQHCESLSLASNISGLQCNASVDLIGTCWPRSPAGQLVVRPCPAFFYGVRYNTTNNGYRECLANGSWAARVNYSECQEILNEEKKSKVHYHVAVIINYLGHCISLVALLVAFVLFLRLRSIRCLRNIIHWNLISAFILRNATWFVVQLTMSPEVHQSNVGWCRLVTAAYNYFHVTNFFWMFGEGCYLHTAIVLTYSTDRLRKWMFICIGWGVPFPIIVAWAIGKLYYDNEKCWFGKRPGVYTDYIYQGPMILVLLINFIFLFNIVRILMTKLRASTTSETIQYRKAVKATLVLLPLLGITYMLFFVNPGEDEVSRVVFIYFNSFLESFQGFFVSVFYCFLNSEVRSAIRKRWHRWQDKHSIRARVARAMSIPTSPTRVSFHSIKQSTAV
Procedure, shortened: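 Cellular cAMP was read by time-resolved FRET between d2-labelled cAMP and cryptate anti-cAMP antibody. The cells were freshly thawed suspension CHO-K1 cells stably expressing human CRHR1.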

Compound `CCCC[C@H](NC(=O)[C@@H](NC(=O)[C@H](CCC(=O)O)NC(=O)C(C)(C)NC(=O)[C@H](CC(N)=O)NC(=O)[C@@H](NC(=O)[C@H](CCCCNC(=O)COCCOCCNC(=O)COCCOCCNC(=O)CC[C@H](NC(=O)CC[C@H](NC(=O)CCCCCCCCCCCCCCCCCCC(=O)O)C(=O)O)C(=O)O)NC(=O)[C@H](C)NC(=O)[C@H](CCC(N)=O)NC(=O)[C@H](CCC(=O)O)NC(=O)[C@H](CCCNC(=N)N)NC(=O)[C@H](C)NC(=O)[C@H](C)NC(=O)[C@H](CCCNC(=N)N)NC(=O)[C@H](C)NC(=O)[C@H](CCCNC(=N)N)NC(=O)[C@H](C)NC(=O)[C@H](CCC(N)=O)NC(=O)[C@H](CCC(N)=O)NC(=O)[C@H](CC(C)C)NC(=O)[C@H](CC(C)C)NC(=O)[C@@H](NC(=O)[C@H](CCC(N)=O)NC(=O)[C@H](CC(C)C)NC(=O)[C@H](CC(C)C)NC(=O)CNC(=O)[C@@H](NC(=O)[C@@H]1CCCN1C(=O)[C@@H](NC(=O)[C@H](CC(=O)O)NC(=O)[C@H](CC(C)C)NC(=O)[C@H](CO)NC(=O)[C@H](CC(C)C)NC(=O)[C@@H](NC(=O)[C@@H](NC)[C@@H](C)CC)C(C)C)C(C)C)[C@@H](C)CC)[C@@H](C)CC)[C@@H](C)O)[C@@H](C)CC)C(=O)N[C@@H](C)C(=O)N[C@@H](CCC(=O)O)C(=O)N[C@H](C(N)=O)C(C)C` [compound 202] (H-[NMeI]VLSLDVPIGLLQILLQQARARAAREQAK([AEEA-AEEA-γGlu-γGlu-C20 diacid])TN[Aib]EI[Nle]AEV-NH2) has an EC50 (hCRHR2) of 0.0251 nM and an EC50 (hCRHR1) of 794 nM.
`CCCC[C@H](NC(=O)[C@@H](NC(=O)[C@H](CCC(=O)O)NC(=O)C(C)(C)NC(=O)[C@H](CC(N)=O)NC(=O)[C@@H](NC(=O)[C@H](CCCCNC(=O)COCCOCCNC(=O)COCCOCCNC(=O)CC[C@H](NC(=O)CC[C@H](NC(=O)CCCCCCCCCCCCCCCCCCC(=O)O)C(=O)O)C(=O)O)NC(=O)[C@H](C)NC(=O)[C@H](CCC(N)=O)NC(=O)[C@H](CCC(=O)O)NC(=O)[C@H](CCCNC(=N)N)NC(=O)[C@H](C)NC(=O)[C@H](C)NC(=O)[C@H](CCCNC(=N)N)NC(=O)[C@H](C)NC(=O)[C@H](CCCNC(=N)N)NC(=O)[C@H](C)NC(=O)[C@H](CCC(N)=O)NC(=O)CNC(=O)[C@H](CC(C)C)NC(=O)[C@H](CC(C)C)NC(=O)[C@@H](NC(=O)[C@H](CCC(N)=O)NC(=O)[C@H](CC(C)C)NC(=O)[C@H](CC(C)C)NC(=O)CNC(=O)[C@@H](NC(=O)[C@@H]1CCCN1C(=O)[C@@H](NC(=O)[C@H](CC(=O)O)NC(=O)[C@H](CC(C)C)NC(=O)[C@H](CO)NC(=O)[C@H](CC(C)C)NC(=O)[C@@H](NC(=O)[C@@H](NC)[C@@H](C)CC)C(C)C)C(C)C)[C@@H](C)CC)[C@@H](C)CC)[C@@H](C)O)[C@@H](C)CC)C(=O)N[C@@H](C)C(=O)N[C@@H](CCC(=O)O)C(=O)N[C@H](C(N)=O)C(C)C` [compound 204] (H-[NMeI]VLSLDVPIGLLQILLGQARARAAREQAK([AEEA-AEEA-γGlu-γGlu-C20 diacid])TN[Aib]EI[Nle]AEV-NH2) gave an EC50 (hCRHR2) of 0.0251 nM and an EC50 (hCRHR1) of 1000 nM.
With `CCCC[C@H](NC(=O)[C@@H](NC(=O)[C@H](CCC(=O)O)NC(=O)C(C)(C)NC(=O)[C@H](CC(N)=O)NC(=O)[C@@H](NC(=O)[C@H](CCCCNC(=O)COCCOCCNC(=O)COCCOCCNC(=O)CC[C@H](NC(=O)CC[C@H](NC(=O)CCCCCCCCCCCCCCCCCCC(=O)O)C(=O)O)C(=O)O)NC(=O)[C@H](C)NC(=O)[C@H](CCC(N)=O)NC(=O)[C@H](CCC(=O)O)NC(=O)[C@H](CCCNC(=N)N)NC(=O)[C@H](C)NC(=O)[C@H](C)NC(=O)[C@H](CCCNC(=N)N)NC(=O)[C@H](C)NC(=O)[C@H](CCCNC(=N)N)NC(=O)[C@H](C)NC(=O)[C@H](CCC(N)=O)NC(=O)[C@H](CCC(=O)O)NC(=O)[C@H](CC(C)C)NC(=O)[C@H](CC(C)C)NC(=O)[C@@H](NC(=O)[C@H](CCC(N)=O)NC(=O)[C@H](CC(C)C)NC(=O)[C@H](CC(C)C)NC(=O)CNC(=O)[C@@H](NC(=O)[C@@H]1CCCN1C(=O)[C@@H](NC(=O)[C@H](CC(=O)O)NC(=O)[C@H](CC(C)C)NC(=O)[C@H](CO)NC(=O)[C@H](CC(C)C)NC(=O)[C@@H](NC(=O)[C@@H](NC)[C@@H](C)CC)C(C)C)C(C)C)[C@@H](C)CC)[C@@H](C)CC)[C@@H](C)O)[C@@H](C)CC)C(=O)N[C@@H](C)C(=O)N[C@@H](CCC(=O)O)C(=O)N[C@H](C(N)=O)C(C)C` [compound 205] (H-[NMeI]VLSLDVPIGLLQILLEQARARAAREQAK([AEEA-AEEA-γGlu-γGlu-C20 diacid])TN[Aib]EI[Nle]AEV-NH2) the EC50 (hCRHR2) was 0.0631 nM, the “Selectivity hCRHR1 EC50/hCRHR2 EC50” value (hCRHR2; Table 4, ratio, or comparison with Ref. 1 (SEQ ID NO: 205) / Ref. 2 (SEQ ID NO: 124)) was 20689 and the EC50 (hCRHR1) was 1260 nM.
`CCCC[C@H](NC(=O)[C@@H](NC(=O)[C@H](CCC(=O)O)NC(=O)C(C)(C)NC(=O)[C@H](CC(N)=O)NC(=O)[C@@H](NC(=O)[C@H](CCCCNC(=O)COCCOCCNC(=O)COCCOCCNC(=O)CC[C@H](NC(=O)CC[C@H](NC(=O)CCCCCCCCCCCCCCCCCCC(=O)O)C(=O)O)C(=O)O)NC(=O)[C@H](C)NC(=O)[C@H](CCC(N)=O)NC(=O)[C@H](CCC(=O)O)NC(=O)[C@H](CCCNC(=N)N)NC(=O)[C@H](C)NC(=O)[C@H](C)NC(=O)[C@H](CCCNC(=N)N)NC(=O)[C@H](C)NC(=O)[C@H](CCCNC(=N)N)NC(=O)[C@H](C)NC(=O)[C@H](CCC(N)=O)NC(=O)[C@H](Cc1c[nH]cn1)NC(=O)[C@H](CC(C)C)NC(=O)[C@H](CC(C)C)NC(=O)[C@@H](NC(=O)[C@H](CCC(N)=O)NC(=O)[C@H](CC(C)C)NC(=O)[C@H](CC(C)C)NC(=O)CNC(=O)[C@@H](NC(=O)[C@@H]1CCCN1C(=O)[C@@H](NC(=O)[C@H](CC(=O)O)NC(=O)[C@H](CC(C)C)NC(=O)[C@H](CO)NC(=O)[C@H](CC(C)C)NC(=O)[C@@H](NC(=O)[C@@H](NC)[C@@H](C)CC)C(C)C)C(C)C)[C@@H](C)CC)[C@@H](C)CC)[C@@H](C)O)[C@@H](C)CC)C(=O)N[C@@H](C)C(=O)N[C@@H](CCC(=O)O)C(=O)N[C@H](C(N)=O)C(C)C` [compound 207] (H-[NMeI]VLSLDVPIGLLQILLHQARARAAREQAK([AEEA-AEEA-γGlu-γGlu-C20 diacid])TN[Aib]EI[Nle]AEV-NH2) showed an EC50 (hCRHR2) of 0.0398 nM and an EC50 (hCRHR1) of 1000 nM.
In the case of `CCCC[C@H](NC(=O)[C@@H](NC(=O)[C@H](CCC(=O)O)NC(=O)C(C)(C)NC(=O)[C@H](CC(N)=O)NC(=O)[C@@H](NC(=O)[C@H](CCCCNC(=O)COCCOCCNC(=O)COCCOCCNC(=O)CC[C@H](NC(=O)CC[C@H](NC(=O)CCCCCCCCCCCCCCCCCCC(=O)O)C(=O)O)C(=O)O)NC(=O)[C@H](C)NC(=O)[C@H](CCC(N)=O)NC(=O)[C@H](CCC(=O)O)NC(=O)[C@H](CCCNC(=N)N)NC(=O)[C@H](C)NC(=O)[C@H](C)NC(=O)[C@H](CCCNC(=N)N)NC(=O)[C@H](C)NC(=O)[C@H](CCCNC(=N)N)NC(=O)[C@H](C)NC(=O)[C@H](CCC(N)=O)NC(=O)[C@@H](NC(=O)[C@H](CC(C)C)NC(=O)[C@H](CC(C)C)NC(=O)[C@@H](NC(=O)[C@H](CCC(N)=O)NC(=O)[C@H](CC(C)C)NC(=O)[C@H](CC(C)C)NC(=O)CNC(=O)[C@@H](NC(=O)[C@@H]1CCCN1C(=O)[C@@H](NC(=O)[C@H](CC(=O)O)NC(=O)[C@H](CC(C)C)NC(=O)[C@H](CO)NC(=O)[C@H](CC(C)C)NC(=O)[C@@H](NC(=O)[C@@H](NC)[C@@H](C)CC)C(C)C)C(C)C)[C@@H](C)CC)[C@@H](C)CC)[C@@H](C)CC)[C@@H](C)O)[C@@H](C)CC)C(=O)N[C@@H](C)C(=O)N[C@@H](CCC(=O)O)C(=O)N[C@H](C(N)=O)C(C)C` [compound 209] (H-[NMeI]VLSLDVPIGLLQILLIQARARAAREQAK([AEEA-AEEA-γGlu-γGlu-C20 diacid])TN[Aib]EI[Nle]AEV-NH2), the EC50 (hCRHR2) was 0.02 nM and the EC50 (hCRHR1) was 3160 nM.
